Source: patent US9598389B2, “Dihydrobenzofuran derivatives as insecticidal compounds” (SYNGENTA PARTICIPATIONS AG, priority 2013, dated 2017)

What was measured:
Assay type in all cases: in vivo
[1] = tested on: Heliothis virescens (Tobacco Budworm); assay: Heliothis virescens egg/larval test on artificial diet; settings: application rate of 200 ppm, eggs 0-24 h old, 5 days after infestation, read-out: egg or larval mortality
Procedure: Heliothis virescens (Tobacco Budworm):
Eggs (0-24 h old) were placed in 24-well microtiter plates on artificial diet and treated with aqueous test solutions prepared from 10,000 ppm DMSO stock solutions by pipetting. The samples were assessed for egg and larval mortality 5 days after infestation.

[2] = tested on: Plutella xylostella (Diamond Back Moth); assay: Plutella xylostella L2 larvae test on artificial diet; settings: 120 h, application rate of 200 ppm, 5 days after infestation, read-out: effect in at least one of the two categories (mortality or growth inhibition)
Procedure: Plutella xylostella (Diamond Back Moth):
(§1) 24-well microtiter plates with artificial diet were treated with aqueous test solutions prepared from 10,000 ppm DMSO stock solutions by pipetting. After drying, the plates were infested with L2 larvae (10 to 15 per well). The samples were assessed for mortality and growth inhibition in comparison to untreated samples 5 days after infestation.

[3] = tested on: Diabrotica balteata (Corn Root Worm); assay: Diabrotica balteata L2 larvae test on artificial diet; settings: 120 h, application rate of 200 ppm, 5 days after infestation, read-out: effect in at least one of the two categories (mortality or growth inhibition)
Procedure: Diabrotica balteata (Corn Root Worm):
as §1, with “(6” for “(10”, “10” for “15”

[4] = tested on: Spodoptera Littoralis (Egyptian Cotton Leaf Worm); assay: Spodoptera littoralis cotton leaf disc spray test; settings: foliar, 72 h, application rate of 200 ppm, L1 larvae, 3 days after infestation, read-out: control (at least one of mortality, anti-feedant effect, growth inhibition)
Procedure: Spodoptera Littoralis (Egyptian Cotton Leaf Worm)
Cotton leaf discs were placed on agar in 24-well microtiter plates and sprayed with aqueous test solutions prepared from 10,000 ppm DMSO stock solutions. After drying the leaf discs were infested with five L1 larvae. The samples were assessed for mortality, anti-feedant effect, and growth inhibition in comparison to untreated samples 3 days after infestation. Control of Spodoptera littoralis by a test sample is when at least one of mortality, anti-feedant effect, and growth inhibition is higher than the untreated sample.

[5] = tested on: Thrips tabaci (Onion Thrips); assay: Thrips tabaci sunflower leaf disc spray test; settings: foliar, 144 h, application rate of 200 ppm, population of mixed ages, 6 days after infestation
Procedure: Thrips tabaci (Onion Thrips):
(§2) Sunflower leaf discs were placed on agar in 24-well microtiter plates and sprayed with aqueous test solutions prepared from 10,000 ppm DMSO stock solutions. After drying the leaf discs were infested with a thrips population of mixed ages. The samples were assessed for mortality 6 days after infestation.

[6] = tested on: Myzus persicae (Green Peach Aphid); assay: Myzus persicae sucrose solution feeding test; settings: 120 h, test rate of 12 ppm, 5 days after infestation
Procedure: Myzus persicae (Green Peach Aphid)
Test compounds from 10,000 ppm DMSO stock solutions were applied by pipette into 24-well microtiter plates and mixed with sucrose solution. The plates were closed with a stretched Parafilm. A plastic stencil with 24 holes was placed onto the plate and infested pea seedlings were placed directly on the Parafilm. The infested plate was closed with a gel blotting paper and another plastic stencil and then turned upside down. The samples were assessed for mortality 5 days after infestation.

[7] = tested on: Tetranychus urticae (Two-Spotted Spider Mite); assay: Tetranychus urticae bean leaf disc spray test; settings: foliar, 192 h, application rate of 200 ppm, 8 days after infestation, read-out: mortality on mixed population (mobile stages)
Procedure: Tetranychus urticae (Two-Spotted Spider Mite):
as §2, with “Bean” for “Sunflower”, “discs” for “discs were placed”, “were” for “and”, “mite” for “thrips”, “on mixed population (mobile stages) 8” for “6”

O=C(Nc1cc(-c2ccc3c(c2)CC(c2cc(Cl)cc(Cl)c2)(C(F)(F)F)O3)ccn1)C1CC1 (stereo not shown) [Compound 137, N-[4-[2-(3,5-dichlorophenyl)-2-(trifluoromethyl)-3H-benzofuran-5-yl]-2-pyridyl]cyclopropanecarboxamide]
≥ 80%: mortality at 200 ppm [1] | percent effect (mortality or growth inhibition) at 200 ppm [2] | percent effect (mortality or growth inhibition) at 200 ppm [3] | percent control (mortality, anti-feedant effect or growth inhibition) at 200 ppm [4]

CCC(=O)Nc1cc(-c2ccc3c(c2)CC(c2cc(Cl)cc(Cl)c2)(C(F)(F)F)S3)ccc1C#N (stereo not shown) [Compound 267, N-{2-Cyano-5-[2-(3,5-dichloro-phenyl)-2-trifluoromethyl-2,3-dihydro-benzo[b]thiophen-5-yl]-phenyl}-propionamide]
≥ 80%: percent effect (mortality or growth inhibition) at 200 ppm [2] | percent control (mortality, anti-feedant effect or growth inhibition) at 200 ppm [4]

CCC(=O)Nc1cccc(-c2ccc3c(c2)CC(c2cc(Cl)cc(Cl)c2)(C(F)(F)F)S3)c1 (stereo not shown) [Compound 268, N-[3-[2-(3,5-dichlorophenyl)-2-(trifluoromethyl)-3H-benzothiophen-5-yl]phenyl]propanamide]
≥ 80%: percent effect (mortality or growth inhibition) at 200 ppm [2] | mortality at 200 ppm [5] | mortality at 12 ppm [6] | percent control (mortality, anti-feedant effect or growth inhibition) at 200 ppm [4]

CCC(=O)Nc1cccc(-c2ccc3c(c2)CC(c2cc(Cl)cc(Cl)c2)(C(F)(F)F)C3O)c1 (stereo not shown) [Compound 270, N-{3-[2-(3,5-Dichloro-phenyl)-1-hydroxy-2-trifluoromethyl-indan-5-yl]-phenyl}-propionamide]
≥ 80%: mortality at 200 ppm [1] | percent effect (mortality or growth inhibition) at 200 ppm [2] | percent effect (mortality or growth inhibition) at 200 ppm [3] | percent control (mortality, anti-feedant effect or growth inhibition) at 200 ppm [4]

CCC(=O)Nc1cc(-c2ccc3c(c2)CC(c2cc(Cl)cc(Cl)c2)(C(F)(F)F)O3)ccc1C#N (stereo not shown) [Compound 198, N-[2-cyano-5-[2-(3,5-dichlorophenyl)-2-(trifluoromethyl)-3H-benzofuran-5-yl]phenyl]propanamide]
≥ 80%: mortality at 200 ppm [1] | percent effect (mortality or growth inhibition) at 200 ppm [2] | percent effect (mortality or growth inhibition) at 200 ppm [3] | mortality at 200 ppm [7] | mortality at 200 ppm [5] | mortality at 12 ppm [6] | percent control (mortality, anti-feedant effect or growth inhibition) at 200 ppm [4]

O=C1CCCN1c1cccc(-c2ccc3c(c2)CC(c2cc(Cl)cc(Cl)c2)(C(F)(F)F)O3)c1 (stereo not shown) [Compound 254, 1-{3-[2-(3,5-Dichloro-phenyl)-2-trifluoromethyl-2,3-dihydro-benzofuran-5-yl]-phenyl}-pyrrolidin-2-one]
≥ 80%: percent effect (mortality or growth inhibition) at 200 ppm [2]

CCC(=O)Nc1ccnc(-c2cc3c(cc2Cl)OC(c2cc(Cl)cc(Cl)c2)(C(F)(F)F)C3)c1 (stereo not shown) [Compound 136, N-[2-[6-chloro-2-(3,5-dichlorophenyl)-2-(trifluoromethyl)-3H-benzofuran-5-yl]-4-pyridyl]propanamide]
≥ 80%: mortality at 200 ppm [1] | percent effect (mortality or growth inhibition) at 200 ppm [2] | percent control (mortality, anti-feedant effect or growth inhibition) at 200 ppm [4]

N#Cc1ccc(-c2ccc3c(c2)CC(c2cc(Cl)cc(Cl)c2)(C(F)(F)F)O3)cc1N1CCCC1=O (stereo not shown) [Compound 261, 4-[2-(3,5-Dichloro-phenyl)-2-trifluoromethyl-2,3-dihydro-benzofuran-5-yl]-2-(2-oxo-pyrrolidin-1-yl)-benzonitrile]
≥ 80%: percent effect (mortality or growth inhibition) at 200 ppm [2] | percent control (mortality, anti-feedant effect or growth inhibition) at 200 ppm [4]

O=C(Nc1cccc(-c2ccc3c(c2)CC(c2cc(Cl)cc(Cl)c2)(C(F)(F)F)O3)c1F)C1CC1 (stereo not shown) [Compound 42, N-(3-(2-(3,5-dichlorophenyl)-2-(trifluoromethyl)-2,3-dihydrobenzofuran-5-yl)-2-fluorophenyl)cyclopropanecarboxamide]
≥ 80%: mortality at 200 ppm [1] | percent control (mortality, anti-feedant effect or growth inhibition) at 200 ppm [4]

O=C(Nc1cccc(-c2ccc3c(c2)CC(c2cc(Cl)cc(Cl)c2)(C(F)(F)F)O3)c1)C1CC1 (stereo not shown) [Compound 141, N-(3-(2-(3,5-dichlorophenyl)-2-(trifluoromethyl)-2,3-dihydrobenzofuran-5-yl)phenyl)cyclopropanecarboxamide]
≥ 80%: mortality at 200 ppm [1] | percent effect (mortality or growth inhibition) at 200 ppm [2] | percent effect (mortality or growth inhibition) at 200 ppm [3] | mortality at 200 ppm [5] | mortality at 12 ppm [6] | percent control (mortality, anti-feedant effect or growth inhibition) at 200 ppm [4]

CCC(=O)Nc1cccc(-c2ccc3c(c2)CC(c2cc(Cl)cc(Cl)c2)(C(F)(F)F)C3=O)c1 (stereo not shown) [Compound 269, N-{3-[2-(3,5-Dichloro-phenyl)-1-oxo-2-trifluoromethyl-indan-5-yl]-phenyl}-propionamide]
≥ 80%: mortality at 200 ppm [1] | percent effect (mortality or growth inhibition) at 200 ppm [2] | percent effect (mortality or growth inhibition) at 200 ppm [3] | mortality at 200 ppm [5] | percent control (mortality, anti-feedant effect or growth inhibition) at 200 ppm [4]

O=C(Nc1cccc(-c2ccc3c(c2)CC(c2cccc(C(F)(F)F)c2)(C(F)(F)F)O3)c1)C1CC1 (stereo not shown) [Compound 182, N-(3-(2-(trifluoromethyl)-2-(3-(trifluoromethyl)phenyl)-2,3-dihydrobenzofuran-5-yl)phenyl)cyclopropanecarboxamide]
≥ 80%: mortality at 200 ppm [1] | percent effect (mortality or growth inhibition) at 200 ppm [2] | percent control (mortality, anti-feedant effect or growth inhibition) at 200 ppm [4]
